From patent US20230071672A1, “PRESERVING FLUOROPHORE FUNCTION” (Lions VisionGift, priority 2021, published 2023)

Experiments:
corneas = assay: Staining of corneas for 15 minutes and fluorescence microscopy imaging after storage of the stain; assay type: cell-based
Method: Calcein AM (2.5 μg/mL) was prepared with 1.7% sodium hyaluronic acid in a balanced salt solution. Three corneas were stained for 15 minutes and imaged under the same conditions. The cornea shown in FIG. 1A was stained with the mixture immediately after preparation. The cornea shown in FIG. 1B was stained with the mixture after the mixture had been stored frozen for 5 days. The cornea shown in FIG. 1C was stained with the mixture after the mixture had been stored frozen for 3 months.
Calcein-AM (2.5 μg/mL) was prepared according to manufacturer's recommendations. All corneas were stained for 15 minutes and imaged under the same conditions.

[1] = stored over night at 4° C., or frozen and thawed; cited from earlier work
[2] = in water and alcohol; cited from earlier work

fluorescence signal after storage (corneas; three months' storage under 4° C. refrigeration, FIG. 2E): completely lost
Substance: calcein AM
fluorescence signal with storage time (corneas; stored under 4° C. refrigeration, protected from light, overnight, five days, one month, three months, FIGS. 2B-2E): loses intensity with the storage time length
functionality after storage [1]: lose functionality
solubility [2]: only slightly soluble
